Reference: patent publication US20150291658A1, “NOVEL CHONDRAMIDE DERIVATIVES” (HELMOLTZ-ZENTRUM FÜR INFEKTIONSFORSCHUNG, priority 2012, published 2015)
Entries after “also recorded” stand apart in the source; their conditions may differ. Read-outs that look alike come from different tables or passages of the source.

Assays:
[1] = tested on: multidrug resistant (MDR) KB-V.1 cell line; assay: Growth inhibition experiments (MTT, 5 d), KB-V.1; type: cell-based; conditions: Table 1
Description: Cancer Inst. 90, 1559-1563). […] The same applies for most novel derivatives, solely a hydroxyl group at C2′ of the polyketide segment instead of methoxy or simply hydrogen leads to an approximately 10-fold reduced potency. GI50 values of glycosylated derivatives were not determinable precisely in the assay's concentration range.
(§1) Cells were seeded at 6×10^3 cells per well of 96-well plates (Corning CellBind®) in 180 μl complete medium and directly treated with chondramides dissolved in methanol in a serial dilution. Each compound was tested in duplicate for 5 d, as well as the internal methanol control. After 5 d incubation, 20 μl of 5 mg/ml MTT (Mosmann, T. (1983). Rapid Colorimetric Assay for Cellular Growth and Survival: Application to Proliferation and Cytotoxicity Assays. J. Immunol. Meth. 65, 55-63) in PBS was added per well and it was further incubated for 2 h at 37° C. The medium was then discarded and cells were washed with 100 μl PBS before adding 100 μl 2-propanol/10 N HCl (250:1) in order to dissolve formazan granules. The absorbance at 570 nm was measured using a microplate reader (EL808, Bio-Tek Instruments Inc.), and cell viability was expressed as percentage relative to the respective methanol control. GI50 values were obtained by sigmoidal curve fitting. Testing of fractions was performed likewise using 1.2×10^4 cells per well. Samples were dissolved in cell culture medium and cells were treated for 2 d before adding MTT. Viability was expressed relative to the untreated control.

[2] = tested on: panel of cell lines derived from various origins and tissues (cancer cell lines, non-cancerous cell lines, primary cells); assay: Growth inhibition experiments (MTT, 5 d), panel of cell lines; type: cell-based; conditions: for growth inhibitory activity in cell lines (in words, compared to chondramides A~C / other derivatives): GI50-based comparison, panel of cell lines
Description: First, the compounds were tested on a small panel of cell lines derived from various origins and tissues. GI50 values were compared to those determined using chondramides A˜C (see Table 1).
(§2) Cell lines were obtained from the American Type Culture Collection (ATCC) and the German Collection of Microorganisms and Cell Cultures (Deutsche Sammlung für Mikroorganismen and Zellkulturen, DSMZ), and HUVEC (single donor) were purchased from PromoCell. Cells were cultured under the conditions recommended by the respective depositor in a standard humidified incubator at 37° C. with 5% CO2.
as §1
These compounds were profiled regarding their growth inhibitory potential in a panel of cancer cell lines. Natural chondramide A was used as reference:
Biological evaluation of group A derivatives. GI50 values [nM] were determined in a small panel of cancer cell lines.

L-929 = assay: Growth inhibition experiments (GI50), L-929; type: cell-based; conditions: Table 1
[3] = molecular target: T1, pyrene-labeled rabbit muscle actin (Oryctolagus cuniculus, UniProt P68135); assay: Actin polymerization assay (pyrene actin fluorescence); type: biochemical; conditions: 20 μM derivative, 5 μM pyrene actin, non-polymerizing buffer, followed over 85 min
T1 construct: pyrene-labeled rabbit muscle actin; purchased Cytoskeleton, Inc; host or cells: rabbit muscle (tissue-derived; inferred from the name)
Description: A final concentration of 20 μM for each derivative was chosen and polymerization was followed over 85 min.
Fluorescence-based actin polymerization assays were performed using pyrene muscle actin (Cytoskeleton, Inc.) according to the supplier's protocol. Chondramides were dissolved in non-polymerizing buffer (5 mM Tris-HCl pH 8.0, 0.2 mM CaCl2, 0.2 mM ATP, 1 mM DTT) and mixed with pyrene actin diluted in the same buffer to give a final concentration of 20 μM chondramide and 5 μM actin. Samples were prepared in black, low-volume 384-well plates (Corning, NBS™ surface). The fluorescence at 405 nm (excitation at 360 nm) was scanned every 30 s for 85 min at 37° C. on a microplate reader (Spectramax M5^e, Molecular Devices). Experiments were performed in duplicates and the average relative fluorescence of polymerizing pyrene actin is given. Slopes were calculated in the linear range of kinetic measurements.

[4] = tested on: fibroblast cell line MRC5; assay: Growth inhibition experiments (MTT, 5 d), MRC5; type: cell-based, human; conditions: Table 1
Description: (§3) With primary cells (HUVEC, human umbilical vein endothelial cells) and the fibroblast cell line MRC5 this is not the case. Whereas chondramides A˜C are comparably active on both, cancer and non-cancerous cells, brominated chondramide C3 analogs are on average by factor 2-4 less toxic for non-cancerous cells. Accordingly they show a higher selectivity.
as §1

[5] = tested on: human U-2 OS osteosarcoma cell line; assay: Growth inhibition experiments (MTT, 5 d), U-2 OS; type: cell-based
Description: as §1

[6] = tested on: HCT-116 colon carcinoma cell line; assay: Growth inhibition experiments (MTT, 5 d), HCT-116; type: cell-based, human
Description: as §1

[7] = tested on: KB-3.1: human cervical carcinoma; assay: Growth inhibition experiments (GI50), KB-3.1; type: cell-based; conditions: for GI50 values KB-3.1: Table 1; for GI50 KB-3.1: group A derivatives, small panel of cancer cell lines, KB-3.1 human cervical carcinoma
[8] = tested on: HUVEC, human umbilical vein endothelial cells (primary cells); assay: Growth inhibition experiments (MTT, 5 d), HUVEC; type: cell-based; conditions: Table 1
Text: as §3, §2, §1

[9] = tested on: RAW246.7: murine leukemic monocyte macrophages; assay: Growth inhibition experiments (GI50), RAW246.7; type: cell-based; conditions: group A derivatives, small panel of cancer cell lines
[10] = Table 1, U-2 OS, read-out: GI50 values U-2 OS
[11] = group A derivatives, small panel of cancer cell lines, U-2 OS human osteosarcoma, read-out: GI50 U-2 OS
[12] = Table 1, HCT-116, read-out: GI50 values HCT-116
[13] = group A derivatives, small panel of cancer cell lines, HCT-116 human colon carcinoma, read-out: GI50 HCT-116

COC1C(=O)OC(C)C(C)C=C(C)CC(C)C(=O)NC(C)C(=O)N(C)C(Cc2c[nH]c3ccccc23)C(=O)NC1c1ccc(OC2OC(C(=O)O)C(O)C(O)C2O)c(Cl)c1 (stereo not shown) [Chondramide A9]
GI50 values KB-V.1 [1]: w.a. | growth inhibitory activity in cell lines (in words, compared to chondramides A~C / other derivatives) [2]: significantly reduced | GI50 values L-929 (L-929): w.a. | actin-polymerizing effect (G-actin polymerization in vitro) [3]: does not show any actin-polymerizing effect

CO[C@@H]1C(=O)O[C@H](C)[C@H](C)/C=C(\C)C[C@H](C)C(=O)N[C@@H](C)C(=O)N(C)[C@H](Cc2c[nH]c3ccccc23)C(=O)N[C@H]1c1ccc(O)cc1 [Chondramide A, reference compound]
GI50 values KB-V.1 [1]: 38.0 ± 10.5 nM | GI50 [4]: 63.8 ± 13 nM | GI50 [5, 10]: 27.1 ± 4.1 nM | GI50 [5, 11]: 68.5 nM | GI50 [6, 12]: 48.9 ± 14.6 nM | GI50 [6, 13]: 91.7 nM | GI50 values KB-3.1 [7]: 50.5 ± 15.4 nM | GI50 KB-3.1 [7]: 71.6 nM | GI50 [8]: 43.7 ± 7 nM | GI50 [9]: 47.3 nM | GI50 (L-929): 90.9 ± 11.8 nM

CCC1C/C=C(\C)CCC(=O)NC(C)C(=O)N(C)C(C(C)C)C(=O)NC(c2ccc(O)c(Cl)c2)CC(=O)O1 (stereo not shown) [CA4]
GI50 [5, 11]: > 180 nM | GI50 [6, 13]: 25.5 nM | GI50 KB-3.1 [7]: 58.2 nM | GI50 [9]: 29.8 nM

COC1C(=O)OC(C)C(C)C=C(C)CC(C)C(=O)NC(C)C(=O)N(C)C(Cc2c(Cl)[nH]c3ccccc23)C(=O)NC1c1ccc(O)c(Cl)c1 (stereo not shown) [Chondramide A4]
GI50 values KB-V.1 [1]: 83.1 ± 1.6 nM | GI50 [4]: 12.7 ± 1.4 nM | GI50 [5, 10]: 26.4 ± 2.2 nM | GI50 [6, 12]: 44.4 ± 1.6 nM | GI50 values KB-3.1 [7]: 56.8 ± 7.0 nM | GI50 [8]: 52.5 ± 7.4 nM | GI50 (L-929): 67.6 ± 9.8 nM | actin-polymerizing effect (G-actin polymerization in vitro) [3]: similarly potent; also recorded: increases the polymerization rate even more drastically

CO[C@@H]1C(=O)O[C@H](C)[C@@H](C)C=C(C)C[C@H](C)C(=O)N[C@@H](C)C(=O)N(C)[C@H](Cc2c(Cl)[nH]c3ccccc23)C(=O)NC1c1ccc(O)cc1 (stereo partly shown) [Chondramide B, reference compound]
GI50 values KB-V.1 [1]: 56.4 ± 9.1 nM | GI50 [4]: 20.9 ± 3.2 nM | GI50 [5, 10]: 20.8 ± 1.9 nM | GI50 [6, 12]: 30.1 ± 9.5 nM | GI50 values KB-3.1 [7]: 40.7 ± 9.4 nM | GI50 [8]: 30.7 ± 2.9 nM | GI50 (L-929): 80.8 ± 13.6 nM

CCC1OC(=O)CC(c2ccc(O)c(Br)c2)NC(=O)C(Cc2c[nH]c3ccccc23)N(C)C(=O)C(C)NC(=O)C(C)CC(C)=CC1C (stereo not shown) [Propionyl-Bromo-Chondramide C3]
GI50 values KB-V.1 [1]: 31.9 ± 2.0 nM | GI50 [4]: 130 ± 3.7 nM | GI50 [5, 10]: 9 ± 0.6 nM | GI50 [6, 12]: 17.2 ± 1.6 nM | GI50 values KB-3.1 [7]: 38.0 ± 6.5 nM | GI50 [8]: 50.2 ± 5.6 nM | growth inhibitory activity in cell lines (in words, compared to chondramides A~C / other derivatives) [2]: the most active in cell-based studies | GI50 values on human cancer cell lines ([2]; human cancer cell lines, cell-based studies): low nanomolar range | GI50 (L-929): 23 ± 2.1 nM

CCC1C/C=C(\C)CCC(=O)NC(C)C(=O)N(C)C(Cc2c(Cl)[nH]c3ccccc23)C(=O)NC(c2ccc(O)c(Cl)c2)CC(=O)O1 (stereo not shown) [CA8]
GI50 [5, 11]: 0.6 nM | GI50 [6, 13]: 0.2 nM | GI50 KB-3.1 [7]: 1.1 nM | GI50 [9]: 0.8 nM

C/C1=C\CCOC(=O)CC(c2ccc(O)c(Br)c2)NC(=O)C(Cc2c[nH]c3ccccc23)N(C)C(=O)C(C)NC(=O)CC1 (stereo not shown) [CA3]
GI50 [5, 11]: 1.8 nM | GI50 [6, 13]: 2.1 nM | GI50 KB-3.1 [7]: 6.4 nM | GI50 [9]: 6.2 nM

C/C1=C\CCOC(=O)CC(c2ccc(O)c(Cl)c2)NC(=O)C(Cc2c(Cl)[nH]c3ccccc23)N(C)C(=O)C(C)NC(=O)CC1 (stereo not shown) [CA2]
GI50 [5, 11]: 66.7 nM | GI50 [6, 13]: 30.5 nM | GI50 KB-3.1 [7]: 375.9 nM | GI50 [9]: 180 nM
